Converted amounts (≈) assume the structure as drawn.
How the values were obtained:
[1] = system: Mycobacterium tuberculosis; test: Antimycobacterial activity against Mycobacterium tuberculosis H37Rv after 6 days by MTT assay; format: functional, organism-based; conditions: 144 h
[2] = Cytotoxicity against human MRC5 cells after 24 hrs; format: cell-based
[3] = Selectivity index, ratio of CC50 for human MRC5 cells to MIC for Mycobacterium tuberculosis H37Rv; format: toxicity, cell-based; conditions: read-out: Selectivity Index

| SMILES | IC50 [1] [nM] | MIC [1] [µM] | CC50 at 24 h [2] [µg/mL] | selectivity ratio [3] |
| --- | --- | --- | --- | --- |
| N=C(N)NCCc1ccc(OCc2ccc(COc3ccc(CCNC(=N)N)cc3)cc2)cc1.O=C(O)C(F)(F)F | 800 | 3.1 | 21 | 10 |
| N=C(N)NCCc1cc2c(O)c(c1)Cc1cc(CCNC(=N)N)cc(c1O)Cc1cc(CCNC(=N)N)cc(c1O)Cc1cc(CCNC(=N)N)cc(c1O)C2 | – | 0.8 (≈ 0.612 µg/mL) | > 256 | > 256 |
| N=C(N)NCCc1ccc(OCc2cc(COc3ccc(CCNC(=N)N)cc3)cc(COc3ccc(CCNC(=N)N)cc3)c2)cc1.O=C(O)C(F)(F)F | 350 | 0.8 | 39.5 | 49 |
| CN[C@@H]1[C@H](O[C@H]2[C@H](O[C@H]3[C@H](O)[C@@H](O)[C@H](N=C(N)N)[C@@H](O)[C@@H]3N=C(N)N)O[C@@H](C)[C@]2(O)C=O)O[C@@H](CO)[C@H](O)[C@H]1O [STREPTOMYCIN] | – | 0.7 (≈ 0.407 µg/mL) | – | – |
| CC[C@@H](CO)NCCN[C@@H](CC)CO [ETHAMBUTOL] | – | 9.8 (≈ 2 µg/mL) | > 10 | > 5 |
| O=C(O)c1cn(C2CC2)c2cc(N3CCNCC3)c(F)cc2c1=O [CIPROFLOXACIN] | 600 | 2.5 (≈ 0.828 µg/mL) | – | – |
| NNC(=O)c1ccncc1 [ISONIAZID] | 220 | 0.6 (≈ 0.0823 µg/mL) | > 10 | > 125 |
| N=C(N)NCCc1ccc(OCc2ccccc2)cc1 | 5900 | 25 (≈ 6.73 µg/mL) | 26 (≈ 96.5 µM) | 2.6 |
| N=C(N)NCCc1ccc(OCc2ccccc2COc2ccc(CCNC(=N)N)cc2)cc1.O=C(O)C(F)(F)F | 1500 | 6.2 | 100 | 24 |
| N=C(N)NCCc1ccc(OCc2cc(COc3ccc(CCNC(=N)N)cc3)c(COc3ccc(CCNC(=N)N)cc3)cc2COc2ccc(CCNC(=N)N)cc2)cc1.O=C(O)C(F)(F)F | 500 | 3.2 | 49 | 11.5 |
| N=C(N)NCCc1ccc(OCc2cccc(COc3ccc(CCNC(=N)N)cc3)c2)cc1.O=C(O)C(F)(F)F | 700 | 3.1 | 34.5 | 16 |
| N=C(N)NCCc1ccc(OCc2c(COc3ccc(CCNC(=N)N)cc3)c(COc3ccc(CCNC(=N)N)cc3)c(COc3ccc(CCNC(=N)N)cc3)c(COc3ccc(CCNC(=N)N)cc3)c2COc2ccc(CCNC(=N)N)cc2)cc1 | 3800 | 12.5 (≈ 15.3 µg/mL) | 26 (≈ 21.2 µM) | 1 |

From ChEMBL document CHEMBL3603838, “Guanidinium compounds with sub-micromolar activities against Mycobacterium tuberculosis. Synthesis, characterization and biological evaluations” (Bioorg Med Chem, 2015)
